Assay [1] has as its target T1, human recombinant histamine H1 receptor (Homo sapiens, UniProt P35367).
T1 construct: expressed in transfected cells; host or cells: CHO cells
The assay can be described thus: Histamine H1 radioligand binding ([3H]Pyrilamine). To be noted: for inhibition at 0.03 µM: 0.03 μM compound; for inhibition at 0.1 µM: 0.1 μM compound. How it is done:
To evaluate in radioligand binding assays the activity of compounds of the invention, human recombinant histamine H1 receptor expressed in Chinese hamster ovary (CHO) cells (De Backer M D et al. Biochem. Biophys. Res Comm. 197(3):1601, 1993) in a modified Tris-HCl buffer (50 mM Tris-HCl, pH 7.4, 2 mM MgCl2, 100 mM NaCl, 250 mM Sucrose) were used. […] Non-specific binding was estimated in the presence of 1 μM pyrilamine. Receptor proteins were filtered and washed, the filters were then counted to determine [^3H]pyrilamine specifically bound. […] Biochemical assay results are presented as the percent inhibition of specific binding in Table 5.
To evaluate in radioligand binding assays the activity of compounds of the invention, human recombinant histamine H1 receptor expressed in Chinese hamster ovary (CHO) cells (De Backer, M. D. et al., Biochem. Biophys. Res. Comm. 197(3):1601, 1993) in a modified Tris-HCl buffer (50 mM Tris-HCl, pH 7.4, 2 mM MgCl2, 100 mM NaCl, 250 mM Sucrose) was used. […] Non-specific binding was estimated in the presence of 1 μM pyrilamine. Receptor proteins were filtered and washed, the filters were then counted to determine [^3H]Pyrilamine specifically bound. Compounds were screened at 1 μM, using 1% DMSO as vehicle. Biochemical assay results are presented as the percent inhibition of specific binding in Table 6.

Assay [2] has as its target T2, human recombinant adrenergic α1D receptor (Homo sapiens, UniProt P25100).
T2 construct: expressed in transfected cells; host or cells: HEK-293 cells
T2 sequence (P25100 1-572): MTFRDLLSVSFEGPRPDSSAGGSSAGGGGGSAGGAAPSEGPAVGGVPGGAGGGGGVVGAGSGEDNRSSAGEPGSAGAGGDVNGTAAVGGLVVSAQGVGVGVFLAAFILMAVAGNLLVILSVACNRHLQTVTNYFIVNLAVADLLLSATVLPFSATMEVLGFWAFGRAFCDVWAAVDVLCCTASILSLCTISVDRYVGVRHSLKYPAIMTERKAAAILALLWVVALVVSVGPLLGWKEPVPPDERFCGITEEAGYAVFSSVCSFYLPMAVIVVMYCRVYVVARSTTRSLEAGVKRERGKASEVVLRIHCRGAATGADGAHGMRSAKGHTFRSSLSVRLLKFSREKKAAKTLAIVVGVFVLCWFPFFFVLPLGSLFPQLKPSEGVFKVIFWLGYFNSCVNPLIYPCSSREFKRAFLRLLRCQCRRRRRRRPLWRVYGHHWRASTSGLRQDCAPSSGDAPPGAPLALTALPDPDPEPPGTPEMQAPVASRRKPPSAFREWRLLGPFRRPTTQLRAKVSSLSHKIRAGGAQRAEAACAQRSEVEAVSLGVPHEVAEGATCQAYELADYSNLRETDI
The assay can be described thus: Adrenergic α1D radioligand binding ([3H]Prozosin). To be noted: percent inhibition of specific binding. Set-up: Inhibition of ligand binding, Adren. alpha1D: concentration or dose not given beside the values. The protocol: Compounds of invention were incubated with 0.6 nM [^3H]Prozosin for 60 minutes at 25° C. Non-specific binding was estimated in the presence of 10 μM phentolamine. Receptor proteins were filtered and washed, the filters were then counted to determine [^3H]Prozosin specifically bound. […] Biochemical assay results are presented as the percent inhibition of specific binding in Table 6.

Assay [3] addresses T3, human recombinant adrenergic α2B receptor (Homo sapiens, UniProt P18089).
T3 construct: expressed in transfected cells; host or cells: CHO-K1 cells
T3 sequence (P18089 1-450): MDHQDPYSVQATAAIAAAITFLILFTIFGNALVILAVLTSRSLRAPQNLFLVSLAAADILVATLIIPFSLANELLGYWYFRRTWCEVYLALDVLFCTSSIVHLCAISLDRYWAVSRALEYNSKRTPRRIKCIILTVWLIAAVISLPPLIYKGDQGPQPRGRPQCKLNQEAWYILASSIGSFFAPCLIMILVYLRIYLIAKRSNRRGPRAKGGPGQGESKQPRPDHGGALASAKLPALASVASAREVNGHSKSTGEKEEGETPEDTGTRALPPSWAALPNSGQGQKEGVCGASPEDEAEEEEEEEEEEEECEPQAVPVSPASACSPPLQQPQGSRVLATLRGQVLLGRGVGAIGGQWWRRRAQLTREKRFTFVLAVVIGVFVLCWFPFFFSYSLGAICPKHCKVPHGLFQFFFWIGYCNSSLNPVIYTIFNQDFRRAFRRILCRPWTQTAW
The assay can be described thus: Adrenergic α2B radioligand binding ([3H]Rauwolscine). Set-up: Inhibition of ligand binding, Adren. alpha2B: concentration or dose not given beside the values. To be noted: percent inhibition of specific binding. How it is done: To evaluate in radioligand binding assays the activity of compounds of the invention, human recombinant adrenergic α2B receptor expressed in Chinese hamster ovary (CHO-K1) cells (Uhlen S et al. Eur J. Pharmacol. 343(1):93, 1998) in a modified Tris-HCl buffer (50 mM Tris-HCl, pH 7.4, 12.5 mM MgCl2, 1 mM EDTA, 0.2% BSA) was used. Compounds of the invention were incubated with 2.5 nM [^3H]Rauwolscine for 60 minutes at 25° C. Non-specific binding was estimated in the presence of 10 μM Prozosin. Receptor proteins were filtered and washed, the filters were then counted to determine [^3H]Rauwolscine specifically bound. […] Biochemical assay results are presented as the percent inhibition of specific binding in Table 6.

[4] abbreviates: […] [3H]Pyrilamine, read-out: Histamine Binding H1, percent inhibition of specific binding.
[5] abbreviates: 1 μM compound, […] [3H]Pyrilamine, read-out: Histamine Binding H1, percent inhibition of specific binding.
[6] abbreviates: percent inhibition of specific binding, screened at 1 μM, read-out: Inhibition of ligand binding, Hist. H1.

The record followed here is US9096591B2, “Tetracyclic compounds” (Medivation Technologies, Inc., priority 2007, dated 2015).

Molecules are shown by their SMILES. Like-named read-outs stand apart in the source and are kept apart here.

T1 sequence (P35367 whole entry): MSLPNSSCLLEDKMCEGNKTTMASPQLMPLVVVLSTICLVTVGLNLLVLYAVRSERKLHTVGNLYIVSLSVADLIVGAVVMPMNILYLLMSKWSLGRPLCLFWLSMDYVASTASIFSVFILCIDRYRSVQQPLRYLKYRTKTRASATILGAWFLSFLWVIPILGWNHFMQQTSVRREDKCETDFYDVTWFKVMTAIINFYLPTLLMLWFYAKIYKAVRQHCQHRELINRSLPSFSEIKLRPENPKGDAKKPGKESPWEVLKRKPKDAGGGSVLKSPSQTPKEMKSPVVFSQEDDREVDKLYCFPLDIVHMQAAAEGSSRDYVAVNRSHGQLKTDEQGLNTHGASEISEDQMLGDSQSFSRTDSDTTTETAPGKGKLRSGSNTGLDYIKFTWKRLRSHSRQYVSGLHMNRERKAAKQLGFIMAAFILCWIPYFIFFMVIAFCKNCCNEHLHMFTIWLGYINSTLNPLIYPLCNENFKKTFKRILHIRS

With `Cc1ccc(CCn2c3c(c4ccccc42)CN(C)CC3)cc1` [Compound 1, 2,3,4,5-tetrahydro-2-methyl-5-(4-methylphenethyl)-1H-pyrido[4,3-b]indole], in assay [1] (setting [4]), the inhibition (in general, the relative decrease from the control value, in per cent) at 0.03 µM was 32% and the inhibition at 0.1 µM came to 56%. Besides, the inhibition at 1 µM in assay [1] (setting [5]) worked out at 91%. The inhibition at 1 µM in assay [1] (setting [6]) amounted to 91%. In addition, the “Inhibition of ligand binding, Adren. alpha1D” value (from here on “Inhibition … Adren. alpha1D”) in assay [2] is given as 76%.
In the case of `CCN1CCc2c(c3ccccc3n2CCc2ccc(C)cc2)C1` [Compound 3, 2-ethyl-2,3,4,5-tetrahydro-5-(4-methylphenethyl)-1H-pyrido[4,3-b]indole], the “Inhibition of ligand binding, Adren. alpha2B” value (from here on “Inhibition … Adren. alpha2B”) in assay [3] was 102%. Further, the inhibition at 1 µM in assay [1] (setting [5]) and in assay [1] (setting [6]) was 88% each time. Besides, the “Inhibition … Adren. alpha1D” value in assay [2] came to 48%.
With `CCN1CCc2c(c3ccccc3n2CCc2ccccc2)C1` [Compound 4, 2-ethyl-2,3,4,5-tetrahydro-5-phenethyl-1H-pyrido[4,3-b]indole], the “Inhibition … Adren. alpha2B” value in assay [3] is listed as 106%. In addition, in assay [1] (setting [4]), the inhibition at 0.03 µM was 47% and the inhibition at 0.1 µM turned out to be 73%. For the same compound, in assay [1] (setting [5]), the inhibition at 1 µM was found to be 93%. The inhibition at 1 µM in assay [1] (setting [6]) worked out at 93%. Moreover, in assay [2], the “Inhibition … Adren. alpha1D” value amounted to 56%.
In the case of `CCN1CCc2c(c3ccccc3n2CCc2ccncc2)C1` [Compound 5], the “Inhibition … Adren. alpha2B” value in assay [3] is given as 78%. In addition, the inhibition at 1 µM in assay [1] (setting [5]) and in assay [1] (setting [6]) was 82% throughout. Besides, the “Inhibition … Adren. alpha1D” value in assay [2] is 21%.
On to `CCN1CCc2c(c3ccccc3n2CCc2ccccn2)C1` [Compound 6], for which, in assay [3], the “Inhibition … Adren. alpha2B” value was found to be 54%. For the same compound, the inhibition at 1 µM in assay [1] (setting [5]) and in assay [1] (setting [6]) was 32% throughout. In assay [2], the “Inhibition … Adren. alpha1D” value came out at 6%.
In the case of `CN1CCc2c(c3ccccc3n2CCc2ccncc2)C1` [Compound 10, 2,3,4,5-tetrahydro-2-methyl-5-(2-(pyridin-4-yl)ethyl)-1H-pyrido[4,3-b]indole], the “Inhibition … Adren. alpha2B” value in assay [3] turned out to be 92%. Further, the inhibition at 1 µM in assay [1] (setting [5]) and in assay [1] (setting [6]) was 88% in each case. Moreover, the “Inhibition … Adren. alpha1D” value in assay [2] is 19%.
In the case of `CCN1CCc2c(c3ccccc3n2Cc2ccccc2)C1` [Compound 16, 5-benzyl-2-ethyl-2,3,4,5-tetrahydro-1H-pyrido[4,3-b]indole], the “Inhibition … Adren. alpha2B” value in assay [3] is listed as 10%. Moreover, the inhibition at 1 µM in assay [1] (setting [5]) and in assay [1] (setting [6]) was 10% in each case. Moreover, the “Inhibition … Adren. alpha1D” value in assay [2] amounted to 12%.
Consider `Cc1ccc(Cn2c3c(c4ccccc42)CN(C)CC3)cn1` [Compound 17, 2,3,4,5-tetrahydro-2-methyl-5-((6-methylpyridin-3-yl)methyl)-1H-pyrido[4,3-b]indole], for which, in assay [3], the “Inhibition … Adren. alpha2B” value is listed as 9%. For the same compound, the inhibition at 1 µM in assay [1] (setting [5]) and in assay [1] (setting [6]) was 15% each time. Also, in assay [2], the “Inhibition … Adren. alpha1D” value is −7%.
`CCOC(=O)N1CCc2c(c3cc(Br)ccc3n2CCc2ccc(C)nc2)C1` [Compound 18, ethyl 8-bromo-3,4-dihydro-5-(2-(6-methylpyridin-3-yl)ethyl)-1H-pyrido[4,3-b]indole-2(5H)-carboxylate]: the “Inhibition … Adren. alpha2B” value in assay [3] is listed as −8%. For the same compound, the inhibition at 1 µM in assay [1] (setting [5]) and in assay [1] (setting [6]) was -14% each time. Besides, in assay [2], the “Inhibition … Adren. alpha1D” value is −10%.
On to `CCOC(=O)N1CCc2c(c3cc(-c4cccnc4)ccc3n2CCc2ccc(C)nc2)C1` [Compound 19, ethyl 3,4-dihydro-5-(2-(6-methylpyridin-3-yl)ethyl)-8-(pyridin-3-yl)-1H-pyrido[4,3-b]indole-2(5H)-carboxylate], for which the “Inhibition … Adren. alpha2B” value in assay [3] is −8%. The inhibition at 1 µM in assay [1] (setting [5]) and in assay [1] (setting [6]) was -3% each time. Also, the “Inhibition … Adren. alpha1D” value in assay [2] was −6%.
With `Cc1ccc2c(c1)c1c(n2CCc2ccccc2)CCN(C)C1` [Compound 20, 2,3,4,5-tetrahydro-2,8-dimethyl-5-phenethyl-1H-pyrido[4,3-b]indole], the “Inhibition … Adren. alpha2B” value in assay [3] was determined as 108%. In addition, the inhibition at 0.004 µM in assay [1] (4 nM compound, […] [3H]Pyrilamine, read-out: Histamine Binding H1, percent inhibition of specific binding) worked out at 34%. In assay [1] (0.02 μM compound, […] [3H]Pyrilamine, read-out: Histamine Binding H1, percent inhibition of specific binding), the inhibition at 0.02 µM is 73%. For the same compound, the inhibition at 0.1 µM in assay [1] (setting [4]) was 93%. Also, the inhibition at 1 µM in assay [1] (setting [5]) and in assay [1] (setting [6]) was 97% each time. Besides, in assay [2], the “Inhibition … Adren. alpha1D” value came to 94%.
`Cc1ccc2c(c1)c1c(n2CCc2ccccn2)CCN(C)C1` [Compound 21, 2,3,4,5-tetrahydro-2,8-dimethyl-5-(2-(pyridin-2-yl)ethyl)-1H-pyrido[4,3-b]indole]: in assay [3], the “Inhibition … Adren. alpha2B” value was found to be 114%. Further, the inhibition at 1 µM in assay [1] (setting [5]) and in assay [1] (setting [6]) was 79% throughout. Moreover, the “Inhibition … Adren. alpha1D” value in assay [2] is reported as 76%.
As to `Cc1ccc(CCn2c3c(c4cc(C)ccc42)CN(C)CC3)cc1` [Compound 25, 2,3,4,5-tetrahydro-2,8-dimethyl-5-(4-methylphenethyl)-1H-pyrido[4,3-b]indole], the “Inhibition … Adren. alpha2B” value in assay [3] was found to be 108%. For the same compound, in assay [1] (setting [4]), the inhibition at 0.03 µM came to 71% and the inhibition at 0.1 µM was found to be 89%. The inhibition at 1 µM in assay [1] (setting [5]) came out at 97%. In assay [1] (setting [6]), the inhibition at 1 µM came out at 97%.
Turning to `Cc1ccc2c(c1)c1c(n2CCc2ccccc2F)CCN(C)C1` [Compound 34, 5-(2-fluorophenethyl)-2,3,4,5-tetrahydro-2,8-dimethyl-1H-pyrido[4,3-b]indole], the inhibition at 0.01 µM in assay [1] (10 nM (0.01 μM) compound, […] [3H]Pyrilamine, read-out: Histamine Binding H1, percent inhibition of specific binding) amounted to 22%. The inhibition at 0.1 µM in assay [1] (setting [4]) was 67%. In addition, the inhibition at 1 µM in assay [1] (setting [5]) and in assay [1] (setting [6]) was 96% each time. Further, in assay [2], the “Inhibition … Adren. alpha1D” value worked out at 76%.
